Source: patent publication US4797417A, “Furanone derivatives, process for preparation thereof and use thereof” (Fujisawa Pharmaceutical Co., Ltd., priority 1982, dated 1989)

Each molecule was assayed against T1, aldose reductase (Oryctolagus cuniculus, UniProt P15122) (assay: Aldose reductase-inhibiting activity, enzymatic assay (decrease in NADPH, D,L-glyceraldehyde substrate, rabbit lens enzyme solution)). Details: IC50 (M), concentration at which the aldose reductase activity is inhibited by 50%, pH 6.2, 35° C., 2 minutes.
T1 construct: The lenses were homogenized with 3 volumes of distilled water at 4° C; from tissue; host or cells: rabbit lens (homogenate, 10,000 G supernatant, dialysed)
Format: biochemical
Procedure: (1) Enzymatic assay method:
The above reactants were mixed and reacted at 35° C. for 2 minutes and the decrease in amount of NADPH was measured with an Automatic Reaction Rate Analyzer Model LKB-8600 of LKB Producter A. B. The enzyme activity at achange in absorbance of 0.001 per minute was taken as unity.
(2) Method for preparing an enzyme solution
Rabbit eyes were enucleated and the lenses collected. The lenses were homogenized with 3 volumes of distilled water at 4° C. (All the subsequent procedures were also performed at 4° C.) and centrifuged at 10,000 G for 60 minutes. The supernatant was dialyzed against 2 liters of 0.05 M of saline solution and the interal fluid was used as the enzyme solution.

| SMILES | IC50 [M] |
| --- | --- |
| COC1=C(c2cccc(C(F)(F)F)c2)C(CCC(=O)O)OC1=O (stereo not drawn) [Example 20, 3-[4-Methoxy-5-oxo-3-(3-trifluoromethylphenyl)2,5-dihydro-2-furyl]propionicacid] | 4.8e-07 |

Same assay, conditions: concentration at which the aldose reductase activity is inhibited by 50%, pH 6.2, 35° C., 2 minutes, read-out: IC50

| SMILES | IC50 [M] |
| --- | --- |
| O=C(O)CCC1OC(=O)C(O)=C1c1ccccc1 (single isomer, unassigned) [Example 30-2, (d)-3-(4-hydroxy5-oxo-3-phenyl-2,5-dihydro-2-furyl)propionic acid] | 2.5e-06 |
| O=C(O)CCC1OC(=O)C(O)=C1c1ccccc1 (single isomer, unassigned) [Example 30-3, (l)-3-(4-hydroxy-5-oxo-3-phenyl-2,5-dihydro-2-furyl)propionic acid] | 5.4e-07 |
| O=C(O)CCC1OC(=O)C=C1c1ccccc1 (stereo not drawn) [Example 29-8, 3-(2,5-dihydro5-oxo-3-phenyl-2-furyl)propionic acid] | 5.4e-07 |

Further lines, results first:

| IC50 [M] | SMILES |
| --- | --- |
| 2.2e-07 | COC1=C(c2ccccc2)C(CCC(=O)O)OC1=O (stereo not drawn) [Example 18, 3-(4-Methoxy-5-oxo-3-phenyl-2,5-dihydro-2-furyl)propionic acid] |
| 2.2e-07 | CCOC(=O)CCC1OC(=O)C(OC)=C1c1ccccc1 (stereo not drawn) [Example 4, ethyl 3-(4-methoxy-5-oxo-3-phenyl-2,5-dihydro-2-furyl)propionate] |
| 2e-07 | CCOC1=C(c2ccccc2)C(CCC(=O)O)OC1=O (stereo not drawn) [Example 22, 3-(4-ethoxy-5-oxo-3-phenyl2,5-dihydro-2-furyl)propionic acid] |
| 1.5e-07 | COC1=C(c2ccc(Cl)cc2)C(CCC(=O)O)OC1=O (stereo not drawn) [Example 19, 3-[3-(4-Chlorophenyl)-4-methoxy-5-oxo-2,5-dihydro-2-furyl]propionic acid] |
| 5e-08 | CCCCCOC1=C(c2ccccc2)C(CCC(=O)O)OC1=O (stereo not drawn) [Example 17, 3-(5-oxo-4-pentyloxy-3-phenyl2,5-dihydro-2-furyl)propionicacid] |
